Test results from patent US7253202B2, “Substituted benzodioxepines” (Merck Patent GmbH, priority 2002, dated 2007).

Experiments:
[1] = biological target: T1, 5HT1A receptor (Rattus norvegicus, UniProt P19327); experiment: 5-HT1A (serotonin) binding test; conditions: binding to the 5HT1A receptor; read-out: 5HT1A (IC50 in nmol/l)
T1 construct: from tissue; host or cells: rat brain (hippocampal) membranes
T1 sequence (P19327 1-422): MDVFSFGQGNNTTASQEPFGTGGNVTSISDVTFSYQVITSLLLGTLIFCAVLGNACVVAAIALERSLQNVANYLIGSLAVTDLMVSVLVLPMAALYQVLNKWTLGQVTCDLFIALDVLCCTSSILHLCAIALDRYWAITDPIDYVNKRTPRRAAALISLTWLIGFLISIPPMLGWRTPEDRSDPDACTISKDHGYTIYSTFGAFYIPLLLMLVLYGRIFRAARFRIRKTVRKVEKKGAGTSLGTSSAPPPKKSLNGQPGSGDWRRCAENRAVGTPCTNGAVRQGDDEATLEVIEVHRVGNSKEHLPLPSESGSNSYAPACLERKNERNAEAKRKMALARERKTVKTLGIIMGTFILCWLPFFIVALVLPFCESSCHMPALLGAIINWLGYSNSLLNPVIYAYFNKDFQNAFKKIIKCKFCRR
Description: Binding properties of the compounds of the formula I can be determined, for example, by the 5-HT1A (serotonin) binding test (Matzen et al., J. Med. Chem., 43 (2000), 1149-1157, in particular page 1156 with reference to Eur. J. Pharmacol.: 140 (1987), 143-155).
The binding properties to the 5HT1A receptor was determined with the aid of the 5-HT1A (serotonin) binding test (Matzen et al., J. Med. Chem., 43 (2000), 1149-1157, in particular page 1156 with reference to Eur. J. Pharmacol.: 140 (1987), 143-155).

[2] = biological target: 5-HT4 receptor (UniProt O70528); experiment: 5-HT4 receptor binding test according to Grossman et al.; conditions: binding to the 5-HT4 receptor; read-out: 5HT4 (IC50 in nmol/l)
Excerpt: For determination of the binding properties of the compounds of the formula I to the 5-HT4 receptor, use can be made of the test according to Grossman et al. (Grossman et al., Br. J. Pharmacol. 109, (1993), 618-24).
In order to determine the binding properties to the 5-HT4 receptor, use was made of the test in accordance with Grossman et al. (Grossman et al., Br. J. Pharmacol. 109, (1993), 618-24).

[3] = biological target: T2, serotonin reuptake (Rattus norvegicus, UniProt P31652); experiment: Serotonin reuptake inhibition by synaptosomal uptake inhibition (Wong et al.); format: biochemical; conditions: read-out: SSRI (IC50 in nmol/l)
T2 construct: from tissue
T2 sequence (P31652 whole entry): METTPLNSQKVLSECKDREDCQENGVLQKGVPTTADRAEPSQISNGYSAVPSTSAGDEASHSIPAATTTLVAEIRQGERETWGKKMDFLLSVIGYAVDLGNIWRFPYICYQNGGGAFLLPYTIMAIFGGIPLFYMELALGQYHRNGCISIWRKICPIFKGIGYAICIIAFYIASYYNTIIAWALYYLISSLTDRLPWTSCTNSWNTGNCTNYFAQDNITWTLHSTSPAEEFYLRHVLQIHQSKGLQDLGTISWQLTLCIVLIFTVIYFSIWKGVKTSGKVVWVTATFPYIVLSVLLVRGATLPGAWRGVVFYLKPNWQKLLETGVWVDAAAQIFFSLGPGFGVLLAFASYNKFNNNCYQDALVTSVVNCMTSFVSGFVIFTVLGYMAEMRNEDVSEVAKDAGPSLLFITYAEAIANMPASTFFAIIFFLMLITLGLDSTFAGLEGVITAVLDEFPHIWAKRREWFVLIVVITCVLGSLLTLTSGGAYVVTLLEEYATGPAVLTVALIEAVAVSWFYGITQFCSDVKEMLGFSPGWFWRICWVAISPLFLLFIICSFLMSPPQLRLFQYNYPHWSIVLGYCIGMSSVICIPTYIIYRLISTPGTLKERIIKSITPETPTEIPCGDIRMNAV
Excerpt: For ex-vivo detection of serotonin reuptake inhibition, use can be made, for example, of synaptosomal uptake inhibition (Wong et al., Neuropsychopharmacol. 8 (1993), 23-33) and p-chloroamphetamine antagonism (Fuller et al., J. Pharmacol. Exp. Ther. 212 (1980), 115-119).
The serotonin reuptake inhibition was investigated with the aid of synaptosomal uptake inhibition by the method of Wong et al. (Neuropsycho-pharmacol. 8 (1993), 23-33).

| Structure (SMILES) | melting point [°C] | IC50 [1] [nmol/L] | IC50 [2] [nmol/L] | IC50 [3] [nmol/L] |
| --- | --- | --- | --- | --- |
| N#Cc1ccc2[nH]cc(CCCCNCC3CCOc4ccccc4O3)c2c1 (stereo not shown) (hydrate or solvate) [EMD 87322] | 78 | – | – | – |
| N#Cc1ccc2[nH]cc(CCCCNCC3CCOc4ccccc4O3)c2c1 (stereo not shown) [EMD 87322] | – | 4 | 8.4 | 0.6 |
| Cc1cccc2c1OCC(NCCCCc1c[nH]c3ccc(C#N)cc13)CO2 (stereo not shown) [EMD 87319, 3-{4-(6-methyl-3,4-dihydro-2H-1,5-benzodioxepin-3-ylamino)butyl}indole-5-carbonitrile] | – | 2 | – | 3 |
| Cc1ccc2c(c1)OCC(NCCCCc1c[nH]c3ccc(C#N)cc13)CO2 (stereo not shown) [EMD 85350, 3-{4-[7-methyl-3,4-dihydro-2H-1,5-benzodioxepin-3-ylamino]butyl}indole-5-carbonitrile] | – | 3 | – | 4 |

More lines, now with the values ahead:

| melting point [°C] | IC50 [1] [nmol/L] | IC50 [2] [nmol/L] | IC50 [3] [nmol/L] | Structure (SMILES) |
| --- | --- | --- | --- | --- |
| 166 to 168 | 0.5 | – | 8 | N#Cc1ccc2[nH]cc(CCCCNC3COc4ccccc4OC3)c2c1 [EMD 76066, N-(3,4-dihydro-2H-1,5-benzodioxepin-3-yl)-4-(5-cyano-3-indole)butylamine] |
| – | 0.6 | – | 1 | COc1cccc2c1OCC(NCCCCc1c[nH]c3ccc(C#N)cc13)CO2 (stereo not shown) [EMD 87326, 3-[4-(6-methoxy-3,4-dihydro-2H-1,5-benzodioxepin-3-ylamino)butyl]indole-5-carbonitrile] |
